In data set [1] the test system is A549. As to the kind of experiment: Induction of apoptosis in human A549 cells assessed as viable cells at 4 uM incubated for 24 hrs by Annexin V-FITC/PI staining based flow cytometric analysis (reference value: 95.08%). It is filed as functional. As to conditions: read-out: Activity. On the technique in general: In flow cytometry, cells or beads pass a laser one at a time.

The subject of data set [2] is A549. In words: Induction of apoptosis in human A549 cells assessed as early apoptotic cells at 4 uM incubated for 24 hrs by Annexin V-FITC/PI staining based flow cytometric analysis (reference value: 1.53%). The format is functional.
Data set [3] deals with A549. As to the kind of experiment: In vivo antitumor activity against human A549 cells xenografted in female BALB/c nu/nu mouse assessed as tumor volume at 2.5 mg/kg, iv administered every 3 days and measured on 18 day relative to control. It is filed as functional. As to conditions: time 3 day.
Data set [4] in a line: Biodistribution in lung of nude mouse xenografted with A549 cells at 5 mg/kg, iv using chlorine e6 loaded self-assembled nanoparticle as source of compound incubated for 24 hrs by ex-vivo fluorescence based LC-MS/MS analysis. The format is ADME, organism-based.
Data set [5] can be described thus: Toxicity in female BALB/c nu/nu mouse xenografted with human A549 cells assessed as effect on body weight at 5 mg/kg, iv using self assembled nanoparticle as source of compound and measured regularly. It is filed as organism-based. The following applies: in vivo. Background: Xenograft models place foreign cells or tissue in a host animal.
Data set [6] addresses T1, Protein deacetylase HDAC6 (Homo sapiens, UniProt Q9UBN7).
T1 sequence (Q9UBN7 whole entry): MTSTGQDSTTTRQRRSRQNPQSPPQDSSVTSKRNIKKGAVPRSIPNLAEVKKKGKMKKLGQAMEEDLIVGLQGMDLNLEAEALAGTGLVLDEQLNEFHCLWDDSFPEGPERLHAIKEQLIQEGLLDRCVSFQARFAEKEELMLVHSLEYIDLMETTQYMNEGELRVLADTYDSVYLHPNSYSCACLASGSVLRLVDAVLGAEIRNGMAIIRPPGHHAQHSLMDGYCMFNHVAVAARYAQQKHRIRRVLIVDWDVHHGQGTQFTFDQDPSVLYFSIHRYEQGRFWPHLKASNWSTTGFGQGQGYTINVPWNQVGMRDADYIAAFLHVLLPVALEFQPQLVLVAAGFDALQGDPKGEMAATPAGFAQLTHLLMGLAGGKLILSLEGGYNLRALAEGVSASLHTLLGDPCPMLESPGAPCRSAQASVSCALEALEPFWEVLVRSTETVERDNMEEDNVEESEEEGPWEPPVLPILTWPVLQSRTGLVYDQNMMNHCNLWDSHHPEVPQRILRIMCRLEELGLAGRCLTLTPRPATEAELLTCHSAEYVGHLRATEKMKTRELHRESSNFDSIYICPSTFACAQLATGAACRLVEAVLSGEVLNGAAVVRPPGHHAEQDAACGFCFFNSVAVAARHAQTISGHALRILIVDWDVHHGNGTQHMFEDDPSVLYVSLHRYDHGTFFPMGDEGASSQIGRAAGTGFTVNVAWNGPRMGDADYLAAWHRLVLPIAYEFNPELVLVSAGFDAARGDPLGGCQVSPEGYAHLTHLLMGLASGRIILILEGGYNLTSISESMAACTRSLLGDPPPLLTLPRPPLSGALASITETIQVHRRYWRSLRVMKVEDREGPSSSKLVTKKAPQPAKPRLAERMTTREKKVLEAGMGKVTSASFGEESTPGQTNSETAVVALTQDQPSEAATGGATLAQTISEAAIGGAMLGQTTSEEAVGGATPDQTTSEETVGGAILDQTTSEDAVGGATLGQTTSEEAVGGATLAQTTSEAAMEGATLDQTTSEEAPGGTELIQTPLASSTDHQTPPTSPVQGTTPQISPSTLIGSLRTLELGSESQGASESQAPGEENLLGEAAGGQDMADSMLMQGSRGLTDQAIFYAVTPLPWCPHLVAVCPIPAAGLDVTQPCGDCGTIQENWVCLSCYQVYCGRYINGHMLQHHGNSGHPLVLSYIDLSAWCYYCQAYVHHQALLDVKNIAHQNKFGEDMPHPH
As to the kind of experiment: Inhibition of recombinant human HDAC6 using Boc-Lys (acetyl)-AMC as substrate preincubated with compound for 1 hr followed by substrate addition and measured after 30 mins by microplate reader assay.

Data set [7] addresses Signal transducer and activator of transcription 5B (Homo sapiens, UniProt P51692). In words: Binding affinity to STAT5B (unknown origin) assessed as dissociation constant by SPR assay. In general terms: Surface plasmon resonance follows binding to a sensor surface in real time, without labels.
Data set [8] deals with Histone deacetylase 4 (Homo sapiens, UniProt P56524). As to the kind of experiment: Inhibition of recombinant human HDAC4 using Boc-Lys (trifluroacetyl)-AMC as substrate preincubated with compound for 1 hr followed by substrate addition and measured after 30 mins by microplate reader assay.
Data set [9] in a line: Drug accumulation in nude mouse xenografted with A549 cells assessed as increase in fluorescence at 5 mg/kg, iv using chlorine e6 loaded self-assembled nanoparticle as source of compound incubated for 24 hrs by ex-vivo fluorescence based analysis. It is filed as ADME, organism-based.
A short description of data set [10]: Toxicity in female BALB/c nu/nu mouse xenografted with human A549 cells assessed as effect on heart at 2.5 mg/kg, iv by H and E staining based analysis. As to conditions: in vivo. The format is organism-based.
Data set [11] addresses Histone deacetylase 8 (Homo sapiens, UniProt Q9BY41). As to the kind of experiment: Inhibition of recombinant human HDAC8 using Boc-Lys (trifluroacetyl)-AMC as substrate preincubated with compound for 1 hr followed by substrate addition and measured after 30 mins by microplate reader assay.
The test system of data set [12] is A549. As to the kind of experiment: Induction of autophagy in human A549 cells assessed as upregulation of LC3-II at 4 uM incubated for 12 hrs by Western blot analysis.
Data set [13] addresses Histone deacetylase 9 (Homo sapiens, UniProt Q9UKV0). As to the kind of experiment: Inhibition of recombinant human HDAC9 using Boc-Lys (trifluroacetyl)-AMC as substrate preincubated with compound for 1 hr followed by substrate addition and measured after 30 mins by microplate reader assay.
Data set [14] deals with HeLa. In words: Anticancer activity against human HeLa cells assessed as cell viability incubated for 72 hrs using self assembled nanoparticle as source of compound by CCK-8 assay. The format is functional, cell-based.
In data set [15] the target is T2, Signal transducer and activator of transcription 3 (Homo sapiens, UniProt P40763). As to the kind of experiment: Binding affinity to STAT3 (unknown origin) assessed as dissociation constant by SPR assay.
Data set [16] has as its target Histone deacetylase 11 (Homo sapiens, UniProt Q96DB2). In words: Inhibition of recombinant human HDAC11 using Boc-Lys (trifluroacetyl)-AMC as substrate preincubated with compound for 1 hr followed by substrate addition and measured after 30 mins by microplate reader assay.
Data set [17] addresses T2, Signal transducer and activator of transcription 3. As to the kind of experiment: Inhibition of STAT3 (unknown origin) in human A549 cells incubated for 4 hrs by Cellular thermal shift assay. The format is cell-based.
The test system of data set [18] is HepG2. In words: Antiproliferative activity against human HepG2 cells assessed as inhibition of cell proliferation incubated for 72 hrs by CCK-8 assay. The format is functional, cell-based. As to conditions: HepG2, 72 h.
Data set [19] concerns A549. As to the kind of experiment: In vivo antitumor activity against human A549 cells xenografted in female BALB/c nu/nu mouse assessed as tumor volume at 5 mg/kg, iv administered every 3 days using self assembled nanoparticle as source of compound and measured on 18 day relative to control. It is filed as functional. As to conditions: time 3 day.
For data set [20], the system named is A549. In words: Induction of apoptosis in human A549 cells assessed as viable cells at 2 uM incubated for 24 hrs by Annexin V-FITC/PI staining based flow cytometric analysis (reference value: 95.08%). The format is functional. As to conditions: Homo sapiens, A549, read-out: Activity.

Active and inactive are the calls of the source. No cut-off for these calls is given here. Some results are limits rather than exact numbers.

T2 sequence (P40763 whole entry): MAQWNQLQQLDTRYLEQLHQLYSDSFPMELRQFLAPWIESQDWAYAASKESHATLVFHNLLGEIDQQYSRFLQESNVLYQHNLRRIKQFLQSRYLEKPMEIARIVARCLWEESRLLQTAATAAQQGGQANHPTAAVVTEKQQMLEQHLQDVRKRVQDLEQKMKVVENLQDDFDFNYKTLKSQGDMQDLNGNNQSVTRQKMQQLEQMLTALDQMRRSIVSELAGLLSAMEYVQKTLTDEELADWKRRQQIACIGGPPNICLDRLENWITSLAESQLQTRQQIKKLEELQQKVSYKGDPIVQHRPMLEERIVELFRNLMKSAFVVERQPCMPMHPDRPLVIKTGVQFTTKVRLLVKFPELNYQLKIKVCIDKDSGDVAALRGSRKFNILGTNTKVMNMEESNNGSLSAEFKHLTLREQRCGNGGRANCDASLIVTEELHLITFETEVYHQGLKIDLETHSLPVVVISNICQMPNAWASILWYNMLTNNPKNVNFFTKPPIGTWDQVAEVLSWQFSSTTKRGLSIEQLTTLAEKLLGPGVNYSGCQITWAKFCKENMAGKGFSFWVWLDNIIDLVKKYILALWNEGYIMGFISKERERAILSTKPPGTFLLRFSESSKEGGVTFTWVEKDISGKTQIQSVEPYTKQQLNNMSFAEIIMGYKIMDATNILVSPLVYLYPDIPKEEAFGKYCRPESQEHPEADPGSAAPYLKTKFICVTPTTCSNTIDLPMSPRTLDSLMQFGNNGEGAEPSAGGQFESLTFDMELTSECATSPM
Chain of Signal transducer and activator of transcription 5B (P51692 whole entry): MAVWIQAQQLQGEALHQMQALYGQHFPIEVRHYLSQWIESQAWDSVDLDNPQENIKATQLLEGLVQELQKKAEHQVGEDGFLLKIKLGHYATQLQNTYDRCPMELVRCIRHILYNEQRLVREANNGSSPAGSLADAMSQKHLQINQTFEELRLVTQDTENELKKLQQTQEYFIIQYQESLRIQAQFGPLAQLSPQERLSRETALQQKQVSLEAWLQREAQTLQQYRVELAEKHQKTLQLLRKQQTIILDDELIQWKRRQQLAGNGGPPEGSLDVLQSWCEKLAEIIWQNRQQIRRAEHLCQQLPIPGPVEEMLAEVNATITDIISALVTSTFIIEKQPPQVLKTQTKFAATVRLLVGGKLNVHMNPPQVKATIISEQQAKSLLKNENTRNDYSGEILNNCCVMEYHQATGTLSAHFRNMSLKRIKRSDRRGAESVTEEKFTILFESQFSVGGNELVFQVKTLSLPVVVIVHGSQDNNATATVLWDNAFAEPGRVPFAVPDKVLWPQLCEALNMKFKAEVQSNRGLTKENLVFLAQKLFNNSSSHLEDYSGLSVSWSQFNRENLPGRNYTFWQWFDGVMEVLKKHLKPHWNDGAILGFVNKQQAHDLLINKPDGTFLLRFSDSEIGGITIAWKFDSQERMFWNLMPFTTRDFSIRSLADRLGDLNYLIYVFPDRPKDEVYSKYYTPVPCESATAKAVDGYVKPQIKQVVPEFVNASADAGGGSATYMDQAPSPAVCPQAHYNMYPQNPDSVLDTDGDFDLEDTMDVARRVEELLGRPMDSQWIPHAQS
Chain of Histone deacetylase 8 (Q9BY41 whole entry): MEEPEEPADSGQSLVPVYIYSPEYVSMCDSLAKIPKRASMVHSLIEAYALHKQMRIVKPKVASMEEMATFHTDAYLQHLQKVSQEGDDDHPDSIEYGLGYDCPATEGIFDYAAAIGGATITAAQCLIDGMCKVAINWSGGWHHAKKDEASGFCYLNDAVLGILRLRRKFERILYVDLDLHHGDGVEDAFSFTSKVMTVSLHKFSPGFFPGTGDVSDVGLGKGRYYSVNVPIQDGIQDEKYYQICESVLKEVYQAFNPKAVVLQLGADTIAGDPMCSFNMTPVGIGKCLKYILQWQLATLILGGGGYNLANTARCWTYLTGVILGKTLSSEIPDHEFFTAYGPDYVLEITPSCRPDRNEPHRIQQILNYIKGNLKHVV
Chain of Histone deacetylase 4 (P56524 whole entry): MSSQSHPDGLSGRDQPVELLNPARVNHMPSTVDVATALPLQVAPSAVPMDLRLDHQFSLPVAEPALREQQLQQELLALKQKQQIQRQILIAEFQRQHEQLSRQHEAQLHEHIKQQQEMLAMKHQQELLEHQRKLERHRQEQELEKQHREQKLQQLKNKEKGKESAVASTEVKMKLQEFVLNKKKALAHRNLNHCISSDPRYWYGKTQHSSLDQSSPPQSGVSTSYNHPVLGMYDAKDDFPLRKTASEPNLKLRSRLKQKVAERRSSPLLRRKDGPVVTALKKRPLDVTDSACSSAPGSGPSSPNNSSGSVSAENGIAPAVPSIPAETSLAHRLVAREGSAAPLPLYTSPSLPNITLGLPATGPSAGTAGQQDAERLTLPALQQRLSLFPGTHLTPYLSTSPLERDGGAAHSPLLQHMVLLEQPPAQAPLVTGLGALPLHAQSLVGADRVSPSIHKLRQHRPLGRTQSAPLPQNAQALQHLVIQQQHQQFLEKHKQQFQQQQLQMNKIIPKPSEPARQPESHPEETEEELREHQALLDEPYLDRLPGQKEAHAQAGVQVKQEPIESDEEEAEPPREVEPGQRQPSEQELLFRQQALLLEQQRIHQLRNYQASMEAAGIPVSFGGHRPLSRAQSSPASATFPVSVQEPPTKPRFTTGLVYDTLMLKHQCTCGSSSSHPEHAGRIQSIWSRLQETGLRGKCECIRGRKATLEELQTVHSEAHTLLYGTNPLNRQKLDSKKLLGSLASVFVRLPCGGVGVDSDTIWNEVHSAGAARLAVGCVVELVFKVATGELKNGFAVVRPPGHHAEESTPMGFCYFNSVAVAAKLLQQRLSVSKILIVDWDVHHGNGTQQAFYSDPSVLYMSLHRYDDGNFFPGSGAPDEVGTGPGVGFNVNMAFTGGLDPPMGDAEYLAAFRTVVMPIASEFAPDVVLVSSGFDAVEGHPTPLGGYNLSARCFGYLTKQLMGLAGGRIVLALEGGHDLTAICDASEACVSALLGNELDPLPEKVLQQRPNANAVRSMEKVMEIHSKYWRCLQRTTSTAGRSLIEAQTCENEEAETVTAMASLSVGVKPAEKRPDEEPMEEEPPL
Chain of Histone deacetylase 9 (Q9UKV0 whole entry): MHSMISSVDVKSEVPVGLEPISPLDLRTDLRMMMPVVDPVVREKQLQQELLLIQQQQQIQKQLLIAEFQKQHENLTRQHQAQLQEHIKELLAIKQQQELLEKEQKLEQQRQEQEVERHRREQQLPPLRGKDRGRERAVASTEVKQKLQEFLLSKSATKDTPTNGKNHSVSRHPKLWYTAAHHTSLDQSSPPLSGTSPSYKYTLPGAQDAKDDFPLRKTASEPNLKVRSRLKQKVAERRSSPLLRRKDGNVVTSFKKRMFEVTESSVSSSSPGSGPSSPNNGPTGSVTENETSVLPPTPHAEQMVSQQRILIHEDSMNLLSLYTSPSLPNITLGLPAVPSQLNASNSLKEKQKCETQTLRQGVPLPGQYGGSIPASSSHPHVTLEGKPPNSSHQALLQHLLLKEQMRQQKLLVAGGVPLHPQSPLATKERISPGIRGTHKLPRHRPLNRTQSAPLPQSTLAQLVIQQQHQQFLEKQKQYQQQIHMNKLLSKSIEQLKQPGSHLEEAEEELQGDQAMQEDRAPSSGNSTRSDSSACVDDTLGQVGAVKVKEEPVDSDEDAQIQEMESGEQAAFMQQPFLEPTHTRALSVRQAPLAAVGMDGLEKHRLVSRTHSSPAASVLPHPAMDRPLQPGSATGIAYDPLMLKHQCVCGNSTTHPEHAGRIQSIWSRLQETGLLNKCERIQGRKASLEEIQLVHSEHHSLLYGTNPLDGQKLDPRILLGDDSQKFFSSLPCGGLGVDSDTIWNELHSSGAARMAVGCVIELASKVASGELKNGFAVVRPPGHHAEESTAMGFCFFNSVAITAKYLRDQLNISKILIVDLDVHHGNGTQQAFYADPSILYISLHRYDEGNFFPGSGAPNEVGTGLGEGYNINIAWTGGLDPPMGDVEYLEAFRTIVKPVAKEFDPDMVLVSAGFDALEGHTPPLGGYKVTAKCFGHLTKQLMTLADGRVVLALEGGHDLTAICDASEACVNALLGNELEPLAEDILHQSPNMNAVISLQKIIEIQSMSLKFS
Chain of Histone deacetylase 11 (Q96DB2 whole entry): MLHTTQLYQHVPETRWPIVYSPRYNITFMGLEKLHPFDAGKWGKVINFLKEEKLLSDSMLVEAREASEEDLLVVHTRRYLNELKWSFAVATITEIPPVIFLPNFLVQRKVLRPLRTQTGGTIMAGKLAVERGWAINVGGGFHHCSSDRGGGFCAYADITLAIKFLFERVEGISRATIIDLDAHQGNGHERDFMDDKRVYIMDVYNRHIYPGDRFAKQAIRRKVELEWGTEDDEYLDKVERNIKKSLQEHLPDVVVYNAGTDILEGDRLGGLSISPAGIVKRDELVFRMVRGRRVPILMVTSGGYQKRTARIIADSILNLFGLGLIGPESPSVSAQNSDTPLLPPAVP

The IC50 is the concentration that inhibits the measured activity by half. The term Kd denotes the equilibrium constant for the complex coming apart. As to `C=C1C(=O)O[C@@H]2C[C@@]3(C)CC[C@@H](OC(=O)[C@H](C)NC(=O)c4ccc(/C=C/C(=O)NO)cc4)C(=C)[C@@H]3C[C@H]12`, the viability at 4 µM in [1] was determined as 56.2%. For the same molecule, the Activity in data set [2] is recorded as 5.3%; in [3], 70.7%; in data set [5], “Non-Toxic”; in data set [10] it was “Non-Toxic”; in data set [19], 19.9%. Also, the Drug uptake result in data set [4] and in [9] was “Active” throughout. The IC50 in [6] was 7.69 nM; in data set [8], more than 10 µM; in [11], 1420 nM; in data set [13] it was more than 10 µM; in data set [14], 72 nM; in data set [16] it was 265 nM. The half-inhibitory concentration (IC50) in [18] was 260 nM. The Kd entry was “Not Active” in [7] and 2520 nM in data set [15]. In [12], the result was Active. Also, the inhibition entry in data set [17] is “Active”. In [20], the viability at 2 µM is 82.5%.

(Values after ChEMBL document CHEMBL6071142, “Isoalantolactone/hydroxamic acid hybrids as potent dual STAT3/HDAC inhibitors and self-assembled nanoparticles for cancer therapy” (Eur J Med Chem, 2024).)
